Molecules are shown by their SMILES.

The values below come from article PMC12648443, “Modifications of NU-9, a potent protein aggregation inhibitor. Properties and activity in a cellular model of amyotrophic lateral sclerosis” (Bioorganic chemistry, 2025).

Series [1] relates to MG132-induced mutant SOD1 intracellular aggregation in PC12-SOD1^G85R YFP cells. Put plainly: Protection against MG132-induced mut-SOD1 intracellular aggregation (fluorescence microscopy). The series is classed as cell-based. To be noted: PC12-SOD1^G85R YFP cells, 0.7 μM MG132, 72 h; Inactive = no decrease of aggregates at 10 μM vs vehicle. As for the experimental part:
The PC12 Tet-Off-SOD1^G85R YFP cells were cultured in DMEM media supplemented with 10 % horse serum, 5 % Tet-approved FBS, 1 % Penstrep, 1× L-glutamine, 200 μg/mL hygromycin, 100 μg/mL G418, with 1 μg/mL Doxycycline and were incubated at 37 °C in humidified air with […] until 90–95 % confluency. To induce the expression of SOD1^G85R YFP, the Doxycycline was removed at least 4 days before the experiment. To remove the Doxycycline, the media was removed, and the cells were washed 3 times with 1xPBS. The cells were then cultured in standard culture media without Doxycycline. To set up the assay, the cells were then seeded into 96-well cell culture plates (Greiner Bio-One Catalog #655090) at a concentration of 50,000 cells/well with a final volume of 100 μL/well and incubated in the CO2 incubator at 37 °C for 24 h. The media were removed from the cells and replaced with 100 μL of media containing 0.1 % DMSO or compounds, and incubated in the CO2 incubator at 37 °C for 6 h. The media were then replaced with fresh 100 μL of media containing the diluted compounds with 0.7 μM (−)-MG-132, and the plates were incubated for 72 h under culture conditions. After 72 h, the cells were stained with Hoescht 33,342 (55 μg/mL, 10 μL/well) and imaged (lex = 358, 513 nm) using a Molecular Devices ImageXpress Micro Confocal High-Content Imaging System equipped with a 40× objective. […] Image binning was set to 2. DAPI fluorescence was captured using an exposure time of 300 ms, and FITC fluorescence was captured using an exposure time of 400 ms. A 13-plane z-series was acquired for each field of view with a step size of 3 μm. For each condition, 2 sets of 9 images were generated in a 3 × 3 grid to separately image the SOD1^G85R YFP proteins and the nuclei stained with Hoescht 33,342. Image analysis was performed with MetaXpress software (Molecular Devices) using the Transfluor module. Parameters for puncta detection (aggregates) were set with a minimum pit width of 2 μm and a maximum pit width of 5 μm. Signal intensity thresholds were defined as 700 grayscale units above the local background. The analysis provided the average area of each cell that is covered by puncta (pit/cell), which are indicated by bright green spots on the SOD1^G85RYFP image set.
The assay was performed in triplicate for each condition tested, and wells containing the media with vehicle (0.1 % DMSO) or (−)-MG-132 alone were used as controls representing the minimum and maximum aggregate formation. […] The data for EC50 determination was treated with Prism and fitted using a semi-logarithmic curve for determination of the EC50 values of NU9 and compounds 4, 6, 20 and 21.

The target of a further series is T1, BCRP (Homo sapiens, UniProt Q9UNQ0).
T1 construct: host or cells: MDCKII-BCRP (canine MDR1 knockout, transfected with BCRP)
T1 sequence (Q9UNQ0 1-655): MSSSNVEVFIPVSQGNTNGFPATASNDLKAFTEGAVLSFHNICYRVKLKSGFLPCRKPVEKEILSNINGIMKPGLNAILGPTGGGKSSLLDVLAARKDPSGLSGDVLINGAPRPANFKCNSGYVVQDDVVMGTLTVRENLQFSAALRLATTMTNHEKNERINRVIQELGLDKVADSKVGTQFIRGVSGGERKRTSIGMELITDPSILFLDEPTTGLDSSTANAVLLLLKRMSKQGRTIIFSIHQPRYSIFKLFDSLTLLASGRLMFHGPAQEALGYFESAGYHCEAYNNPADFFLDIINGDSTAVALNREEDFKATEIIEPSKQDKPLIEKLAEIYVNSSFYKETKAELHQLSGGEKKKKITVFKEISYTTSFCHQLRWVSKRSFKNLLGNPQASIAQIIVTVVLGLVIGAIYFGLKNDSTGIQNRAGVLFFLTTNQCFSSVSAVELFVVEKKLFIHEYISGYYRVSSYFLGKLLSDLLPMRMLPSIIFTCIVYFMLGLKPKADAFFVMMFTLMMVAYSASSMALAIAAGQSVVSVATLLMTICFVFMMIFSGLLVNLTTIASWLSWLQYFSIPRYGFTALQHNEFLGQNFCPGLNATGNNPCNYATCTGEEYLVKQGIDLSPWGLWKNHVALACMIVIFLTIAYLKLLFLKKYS
Put plainly: MDCKII-BCRP bidirectional permeability / efflux assay. The series is classed as in vitro ADME. To be noted: for substrate for the BCRP transporter: based on efflux ratio (> 2.0 = substrate); for Papp A→B at 120 min / Papp B→A at 120 min / efflux ratio at 120 min: dog, MDCKII-BCRP, absence of Ko143. How it is done: For each experiment, the apparent permeability (Papp) for each direction and the efflux ratio (ER) were determined by the equations: Papp(cm/s)=(dQ/dt)/A×Co
Where P(B→A) is the apparent permeability of the compounds from the basal to the apical direction and P(A→B) is the apparent permeability from the apical to basal direction. […] The results are presented as an average of two independent experiments.

Series [2] in a line: Microsomal metabolic stability, human. Format: in vitro ADME. To be noted: liver microsomes; for microsomal CLint at 1.1 μM: pH 7.4, 0.5 mg/mL; for half-life at 1.1 μM: pH 7.4, read-out: t1/2 (human). As for the experimental part: (§1) The assay was performed at Jubilant Biosys. Vials containing human or mouse microsomes were collected from the -80 °C freezer and thawed on ice. Then 27.5 μL of the initial microsome solutions (20 mg/mL) were diluted in 971.5 μL of a 67 mM potassium phosphate buffer solution (pH 7.4). The testing compounds were diluted in the buffered microsomal solution to obtain a final concentration of 1.1 μM. Then four different aliquots, each containing 180 μL of the assay solution, representing the samples at T = 0, T = 5, T = 15, and T = 30 min. The samples were pre-incubated at 37 °C for 5 min with gentle shaking, and then 20 μL of a NADPH solution (10 mM) was added to the different solutions of the test compounds. […] An aliquot of the supernatant (200 μL) was collected from each reaction sample and analyzed by LC-MS/MS. The Ln values of the peak area of the compounds to the internal standard over time (min.) were graphed using Excel, and the elimination rates of the compounds (k) were determined from the slopes obtained from the graphs. The k values were used to calculate the compounds half-life using the equation: t1/2=Ln2/k The intrinsic clearance (CLint) of each compound in the presence of mouse and human microsomes was calculated using the equation: […] Verapamil and Ketoconazole were used as controls to evaluate the assay performance. The results are presented as an average of two technical replicates.

Series [3] in a line: Microsomal metabolic stability, mouse. Format: in vitro ADME. To be noted: liver microsomes; for microsomal CLint at 1.1 μM: pH 7.4, 0.5 mg/mL; for half-life at 1.1 μM: pH 7.4, read-out: t1/2 (mouse). As for the experimental part: as §1
A general note: Microsomes from liver hold many membrane-bound enzymes, among them those of drug oxidation.

The nature of series [4]: Parallel artificial membrane permeability assay - blood brain barrier (PAMPA-BBB). To be noted: for Log Pe: PAMPA-BBB, High permeability LogPe > −5.33, No permeability LogPe < −6.14; for Papp at 18 h, 250 μM: pig, PAMPA, pH 7.5. (PAMPA measures passive passage across an artificial lipid membrane.)
Description: A solution of 1 × PBS (pH 7.5) was initially prepared by the dilution of a commercially available 10 × PBS solution. […] A solution of porcine brain lipid (PBL) (20 mg/mL in dodecane) was prepared, and 4 μL of this solution was used to coat the filters on the bottom of the PAMPA donor plates (Sigma Aldrich #MAIPNTR10). After air drying for 20 min, the donor plate wells were charged with 250 μL of the solutions of the test compounds or the controls. The donor plate was then placed over the acceptor plate (Sigma Aldrich #MATRNPS50), in which wells were previously filled with 1 × PBS (2 % DMSO v/v) solution. The PAMPA sandwich was closed with parafilm and incubated at 25 °C for 18 h in a humidity-saturated atmosphere with orbital agitation. […] The UV spectra (250–400 nm) of each well were acquired on a BioTek Synergy H1 MD plate reader equipped with a monochromator at room temperature.
CA(t) is the concentration of the compounds at the final time of incubation on the acceptor well; CD(0) and CD(t) are the concentration of the compounds at the initial time of incubation and at the final time of incubation on the donor well, respectively.

A word on the EC50: it is the concentration that produces a half-maximal response. In general, Papp A→B refers to how fast a substance crosses the layer from the apical side. The Papp B→A is how fast a substance crosses the layer from the basolateral side. A word on the efflux ratio: it is the permeability from basolateral to apical divided by that in the opposite direction, in the common usage. The microsomal CLint is a measure of how fast metabolising enzymes remove a compound, apart from limits set by blood flow. Read a high microsomal CLint as rapid turnover. Broadly, the Papp is a coefficient for how fast a substance crosses the barrier. Low readings indicate poor permeation, high ones ready permeation. In series [1], `O=C1CC(=O)CC(/C=C/c2cc(C(F)(F)F)cc(C(F)(F)F)c2)C1` [Compound 6, (E)-5-(3,5-Bis(trifluoromethyl)styryl)cyclohexane-1,3-dione] displayed an EC50 of 2060 ± 240 nM. For the same compound, on BCRP, the “substrate for the BCRP transporter” value is “substrates”, the apparent permeability from apical to basolateral (Papp A→B) at 120 min is 0.66 ± 0.18 ×10⁻⁶ cm/s, the Papp B→A at 120 min was 31.5 ± 2.73 ×10⁻⁶ cm/s and the efflux ratio at 120 min came out at 47.4. In addition, in series [2], the microsomal CLint at 1.1 μM was found to be 25.8 ± 1.6 µL/min/mg and the half-life at 1.1 μM was 53.9 ± 3.3 min. For the same compound, in series [3], the microsomal CLint at 1.1 μM is 67.3 ± 0.9 µL/min/mg and the half-life at 1.1 μM was 20.7 ± 0.3 min. In series [4], the “Log Pe” value is −5.07 and the Papp at 18 h, 250 μM came out at 8.46 ± 0.1 ×10⁻⁶ cm/s.
Consider `CC(C)(Oc1cc(C(F)(F)F)cc(C(F)(F)F)c1)C1CC(=O)CC(=O)C1` [Compound 20, 5-(2-(3,5-bis(trifluoromethyl)phenoxy)propan-2-yl)cyclohexane-1,3-dione], for which, in series [1], a half-maximal effect (EC50) was put at 2630 ± 270 nM. In addition, at BCRP, the “substrate for the BCRP transporter” value is listed as “substrates”, the Papp A→B at 120 min was found to be 3.62 ± 0.22 ×10⁻⁶ cm/s, the Papp B→A at 120 min amounted to 19.2 ± 0.88 ×10⁻⁶ cm/s and the efflux ratio at 120 min is 5.32. In series [2], the microsomal CLint at 1.1 μM was 10.4 ± 3.1 µL/min/mg and the half-life at 1.1 μM was > 120 min. In series [3], the microsomal CLint at 1.1 μM was found to be 35.7 ± 4.7 µL/min/mg and the half-life at 1.1 μM was determined as 40.7 ± 3.8 min. Besides, in series [4], the “Log Pe” value was −4.94 and the Papp at 18 h, 250 μM stood at 11.5 ± 0.66 ×10⁻⁶ cm/s.
